In US20130131136A1, “NOVEL METHODS FOR PREDICTING THE RESPONSIVENESS OF A PATIENT AFFECTED WITH A TUMOR TO A TREATMENT WITH A TYROSINE KINASE INHIBITOR” (priority 2010, published 2013):

How the values were obtained:
[1] = tested on: advanced metastatic renal cell clear cell carcinoma; assay: Sutent treatment of patients with advanced metastatic renal cell clear cell carcinoma, response after the 3 months therapy course (RECIST criteria); format: in vivo, human; conditions: of 50 patients analyzed, 50 mg/day for 4 weeks followed by 2 weeks off
Description: All patients were diagnosed with advanced metastatic renal cell clear cell carcinoma and subjected to surgery for removal of the primary tumor. The tumor tissue was fixed in formaldehyde, and embedded in paraffin. Sections were cut and stained for the FSH receptor using the monoclonal antibody FSHR323, followed by a secondary HRP- or Alexa555-coupled antibody. The density of vessels in the tumor tissue was determined by microscopy using a 20× objective. Starting at the border between the normal and the tumor tissue and moving towards the interior of the tumor, digital photographs were taken of every other field. The number of FSHR-positive vessels in each image was counted in 20 images from each tumor.
The patients were subjected to Sutent treatment for >=3 months with a dose of 50 mg/day for 4 weeks followed by 2 weeks off. Depending on the effects of the treatment, at the end of the 3 months therapy course the patients were designated as “responsive”, “stable” or “non-responsive” according to the criteria described in [Eisenhauer et al., 2009]. The patients were categorized as “responsive” if there was at least a 30% decrease in the sum of the diameters of the lesions, and “non-responsive” if the sum of the lesion sizes increased by at least 20%.

[2] = tested on: metastatic renal cell carcinoma (mRCC); conditions: cited from earlier work
RCC = conditions: BEV alone; cited from earlier work

| Molecule | number of patients "non-responsive" (sum of the lesion sizes increased by at least 20%) [1] | number of patients "responsive" (at least 30% decrease in the sum of the diameters of the lesions) [1] | number of patients "stable" [1] | fraction of RCC patients who respond to the treatment ([2]; RCC patients) | reduction of the risk of relapse (progression-free survival) ([2]; first-line therapy, mRCC, compared to interferon-α) | adverse side effects ([2]; patients, typical treatment session 3 months) | activity in patients with RCC (RCC) |
| --- | --- | --- | --- | --- | --- | --- | --- |
| CCN(CC)CCNC(=O)c1c(C)[nH]c(/C=C2\C(=O)Nc3ccc(F)cc32)c1C [Sutent, N-[2-(diethylamino)ethyl]-5-[(Z)-(5-fluoro-1,2-dihydro-2-oxo-3H-indol-3-ylidine)methyl]-2,4-dimethyl-1H-pyrrole-3 carboxamide] | 17 patients | 15 patients | 18 patients | about one third | 58% | significant adverse side effects |  |
| BEV: a monoclonal humanized antibody against circulating VEGF |  |  |  |  |  |  | showed activity only as second-line treatment and only in cytokine-refractory patients |
